Assay results from patent publication US6852744B2, “Pyrrolidine derivatives and their use as chymase inhibitor” (Dainippon Pharmaceutical Co., Ltd., priority 2000, dated 2005).
Where a chain is given by its changes, count along the chain named. Where a name gives a salt, the structure may show the parent alone.

Tests used:
in vivo = conditions: male, ddy, mouse, po
Protocol: Plasma levels of test compounds were measured in the following manner.
Briefly, test compounds were dissolved in DMSO to 100 mg/ml, and suspended with 0.5% tragacanth solution 1 mg/ml. Male ddy mice, weighing about 30 g, were orally administered the test compound solution. After one hour, blood was collected from the heart under anesthesia with Nembutal (Dainippon Pharmaceutical Co., Ltd.) and centrifuged to obtain plasma. The collected plasma (125 μl) was mixed with 10% DMSO (120 μl) and ethyl acetate (720 μl). After centrifugation, the ethyl acetate layer was collected and evaporated. The residue was dissolved and diluted serially as test samples with 10% DMSO. Chymase inhibitory activities of test samples were measured in the same manner as described in Experiment 1. In this chymase inhibitory assay of test samples, 0.1 mol/1000 ml sodium phosphate buffer, pH 7.4 contained 5 mmol/1000 ml ethylenediaminetetraacetic acid (EDTA) disodium salt, 0.77 mmol/1000 ml diisopropyl fluorophosphate (DFP) and 8 mmol/1000 ml dipyridyl. Plasma concentrations of test compounds were calculated from calibration curves.
The calibration curve was obtained in the following manner. Test compounds (0.06-60 ng) were added into the control plasma. The control plasma was treated in the same manner as for test samples. Finally, chymase inhibitory activities of the 10% DMSO-dissolved residues were measured and plotted against the amount of test compounds.

monkey chymase = target: T1, monkey chymase (Macaca fascicularis, UniProt P56435); assay: Monkey chymase inhibitory activity (in vitro, angiotensin I substrate); type: biochemical; conditions: for IC50: chymase purified from monkey cheek pouch and stomach, substrate angiotensin I, 37° C., read-out: Monkey Chymase Inhibition (IC50:nM)
T1 construct: chymase was extracted from homogenized monkey cheek pouch and stomach; from tissue; host or cells: monkey cheek pouch and stomach
T1 sequence (P56435 22-247): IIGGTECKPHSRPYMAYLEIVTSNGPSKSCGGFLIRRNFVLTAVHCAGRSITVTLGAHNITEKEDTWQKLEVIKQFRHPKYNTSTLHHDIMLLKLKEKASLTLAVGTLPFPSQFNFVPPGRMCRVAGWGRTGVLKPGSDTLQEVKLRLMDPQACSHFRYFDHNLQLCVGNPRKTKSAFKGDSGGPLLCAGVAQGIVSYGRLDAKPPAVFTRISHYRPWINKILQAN
Protocol: (§1) The inhibitory activities of the compounds on monkey chymase and human chymase were tested in vitro. The test compounds are as shown by Compound Nos. in Tables 13 and 14.
Preparation of Monkey Chymase
Chymase was purified from monkey cheek pouch and stomach in the following manner.
Briefly, chymase was extracted from homogenized monkey cheek pouch and stomach with 0.01 mol/1000 ml sodium phosphate buffer, pH 7.4, containing 2 mol/1000 ml KCl and 0.1% Nonidet P-40 (Amresco Inc.). The solution containing chymase was applied to a heparin actigel column, and the chymase-rich fractions were collected.
(§2) Measurement of Chymase Inhibitory Activity (In Vitro Assay)
(§3) Briefly, the purified monkey or human chymase was diluted to an appropriate concentration with 0.01 mol/1000 ml sodium phosphate buffer, pH 7.4, containing 2 mol/1000 ml KCl and 0.1% Nonidet P-40 and used as enzyme solution. Angiotensin I (Peptide Institute Inc.) was diluted with water to 5 mg/ml and used as substrate solution. Test compounds were serially diluted with 10% DMSO. […] After pre-incubation of the mixture at 37° C., 20 μl of the substrate solution was added to the enzyme-test compound mixture and the new mixture was incubated at 37° C. Fifty μl of 30% trichloroacetic acid solution was finally added to stop the enzymatic reaction.
(§4) The amount of L-His-L-Leu was measured as angiotensin II produced by the enzymatic reaction. Briefly, 10 μl of the reaction mixture and 10 μl of 1% orthophthalaldehyde solution dissolved in methanol were mixed with 100 μl of 2 mol/1000 ml NaOH and kept at room temperature. The reaction was then stopped by adding 10 μl of 6 mol/1000 ml HCl.

human chymase = target: T2, human chymase (Homo sapiens, UniProt P23946); assay: Human chymase inhibitory activity (in vitro, angiotensin I substrate); type: biochemical; conditions: for IC50: recombinant human chymase (COS7 cells), substrate angiotensin I, 37° C., read-out: Human Chymase Inhibition (IC50:nM)
T2 construct: made in house; host or cells: COS7 cells (transient transfection)
T2 sequence (P23946 22-247): T1 sequence (P56435 22-247) with S29F, V44A, K63E, Y159D, L201S, K221Q
Protocol: as §1
Preparation of Human Chymase
Human chymase was produced in mammalian cells using a recombinant DNA technique.
Construction of a human prochymase expression plasmid was performed in the following manner. Briefly, single stranded cDNA was synthesized from human heart mRNA (Clontech Laboratories, Inc.). Polymerase chain reaction amplification was carried out using the cDNA as a template and appropriate pairs of primers. The primer sequences were determined based on the human preprochymase. The amplified product was cloned into the plasmid pUC18, and then recloned into the plasmid pBluescript II KS(+) (Stratagene). Finally, the DNA fragment carrying the entire protein-coding sequences of the human preprochymase was inserted to a transient expression vector by the usual method to yield the human prochymase expression plasmid.
Transfection of COS7 cells with the human prochymase expression plasmid was carried out using the FuGene™ 6 transfection reagent (Boehringer Mannheim). About 7 hours after exposure to DNA, the culture medium was changed to a serum-free one. The culture supernatant was collected after 2 days culture.
Human prochymase was purified from the culture supernatant using a heparin actigel column as described above in the preparation of monkey chymase.
In order to produce active chymase, the human prochymase was incubated with dipeptidylpeptidase I (Sigma). The resultant active human chymase was purified using a heparin actigel column as described above. The active human chymase was eluted with 0.01 mol/1000 ml sodium phosphate buffer pH 7.4 containing 2 mol/1000 ml NaCl.
as §2
as §3, with “The chymase inhibitory activities of compounds I-A of this invention were measured according to the following method. Briefly,” for “Briefly,”
as §4, with “HCl. Finally, the fluorescence induced by the reaction was measured using in a photometer with an excitation wavelength of 355 nm and an emission wavelength of 460 nm. Chymase inhibitory activities of test compounds were expressed as 50% inhibitory concentration (IC50).” for “HCl.”

[1] = system: chymase-induced dye leakage; assay: Skin permeability test: inhibition of vascular permeability (Evans Blue dye leakage); type: in vivo; conditions: male Hartley guinea pigs, 100 mg/kg orally 1 hour before intradermal injection of human chymase
Protocol: Skin permeability test was carried out according to the following method. Briefly, male Hartley guinea pigs (350-460 g, Shizuoka Laboratory Animal Center, Japan) were anesthetized by intraperitoneal injection of Nembutal™ (30 mg/kg; Dainippon Pharmaceutical Co., Ltd., Japan). After shaving the guinea pigs dorsa, 50 μl of purified human chymase (Elastin Products Inc., USA) diluted with phosphate buffered saline (PBS) to a concentration of 1.8 units /55 μg protein/ml (1 unit of chymase represents the amount of chymase required to hydrolyze 1.0 μmole of N-benzoyl-L-tyrosine-ethyl ester (BTEE) per minute at 25° C.; pH 7.8) were injected intradermally into three dorsal sites of each animal. […] The amounts of dye leakage into the dorsal skins were measured according to the following method.
Briefly, the area around each injection site (16 mm diameter) was punched out from the inside of the skin, and the leaked dye was extracted by incubation of the punched skin in N,N-dimethylformamide (DMF, 3 ml) at 55° C. overnight. The absorbance of the dye extract was then measured using a spectrophotometer at a wavelength of 620 nm. […] The amount of chymase-induced dye leakage (ACDL) and the amount of solvent-induced dye leakage (ASDL) in each animal were calculated as the average of dye leakage from the three treated dorsal sites in each case. […]

Row | SMILES | concentration at 1 h (in vivo) | IC50 (monkey chymase) | IC50 (human chymase) | inhibitory activity on monkey chymase (in words) (monkey chymase; summary of Table 13) | inhibitory activity on human chymase (in words) (human chymase; summary of Table 14) | Dye leakage inhibition rate (%) [1]
1 | CC[C@@H](C)[C@H](NC(=O)c1c(C)noc1C)C(=O)N1CCC[C@H]1C(=O)N[C@@H](Cc1csc2ccccc12)C(=O)C(F)(F)F [I-A-4, N-[1-((1R)-1-methylpropyl)(1S)-2-((2S)-2-{N-[(1S)-1-(benzo[b]thiophen-3-ylmethyl)-3,3,3-trifluoro-2-oxopropyl]carbamoyl}pyrrolidinyl)-2-oxoethyl](3,5-dimethylisoxazol-4-yl)carboxamide] | 940 ng/mL | 12 nM | 57 nM | – | – | –
2 | CC[C@H](NC(=O)c1c(C)noc1C)C(=O)N1CCC[C@H]1C(=O)N[C@@H](Cc1csc2ccccc12)C(=O)C(F)(F)F [I-A-3, N-[(1S)-2-((2S)-2-{N-[(1S)-1-(benzo[b]thiophen-3-ylmethyl)-3,3,3-trifluoro-2-oxopropyl]carbamoyl}pyrrolidinyl)-1-ethyl-2-oxoethyl](3,5-dimethylisoxazol-4-yl)carboxamide] | 320 ng/mL | 9.3 nM | 50 nM | – | – | –
3 | CNC1CCN(C(=O)N[C@H](C(=O)N2CCC[C@H]2C(=O)N[C@@H](Cc2ccccc2)C(=O)C(F)(F)F)C(C)C)CC1 [Reference compound (A), [(2S)-1-((2S)-3-methyl-2-{[4-(methylamino)piperidyl]carbonylamino}butanoyl)pyrrolidin-2-yl]-N-[(1S)-3,3,3-trifluoro-2-oxo-1-benzylpropyl]carboxamide hydrochloride, reference compound] | – | 1600 nM | 1200 nM | very low chymase inhibitory activity | very low chymase inhibitory activity | –
4 | Cc1noc(C)c1C(=O)N[C@@H](C)C(=O)N1CCC[C@H]1C(=O)N[C@@H](Cc1csc2ccccc12)C(=O)C(F)(F)F [I-A-5, N-[(1S)-2-((2S)-2-{N-[(1S)-1-(benzo[b]thiophen-3-ylmethyl)-3,3,3-trifluoro-2-oxopropyl]carbamoyl}pyrrolidinyl)-1-methyl-2-oxoethyl](3,5-dimethylisoxazol-4-yl)carboxamide] | 630 ng/mL | 16 nM | 83 nM | – | – | –
5 | CC(C)[C@H](NC(=O)c1ccc2c(c1)no[n+]2[O-])C(=O)N1CCC[C@H]1C(=O)NC(Cc1ccc2ccccc2c1)C(=O)C(F)(F)F (stereo partly shown) [I-A-53] | – | 31 nM | 69 nM | – | – | –
6 | CC(C)[C@H](NC(=O)c1ccc2nonc2c1)C(=O)N1CCC[C@H]1C(=O)NC(Cc1cc2ccccc2s1)C(=O)C(F)(F)F (stereo partly shown) [I-A-95] | – | 47 nM | 95 nM | – | – | –
7 | Cc1nnsc1C(=O)N[C@H](C(=O)N1CCC[C@H]1C(=O)N[C@@H](Cc1csc2ccccc12)C(=O)C(F)(F)F)C(C)C [I-A-20, N-[(1S)-2-((2S)-2-{N-[(1S)-1-(benzo[b]thiophen-3-ylmethyl)-3,3,3-trifluoro-2-oxopropyl]carbamoyl}pyrrolidinyl)-1-(methylethyl)-2-oxoethyl](4-methyl(1,2,3-thiadiazol-5-yl))carboxamide] | 570 ng/mL | 5.1 nM | 36 nM | – | – | 59%
8 | Cc1nnsc1C(=O)N[C@H](C(=O)N1CCC[C@H]1C(=O)NC(Cc1ccccc1)C(=O)C(F)(F)F)C(C)C (stereo partly shown) [I-A-96] | – | 50 nM | 77 nM | – | – | –
9 | Cc1nnsc1C(=O)N[C@H](C(=O)N1CCC[C@H]1C(=O)NC(Cc1cc2ccccc2s1)C(=O)C(F)(F)F)C(C)C (stereo partly shown) [I-A-97] | – | 59 nM | 75 nM | – | – | –
10 | CC(C)[C@H](NC(=O)c1ccoc1)C(=O)N1CCC[C@H]1C(=O)NC(Cc1csc2ccccc12)C(=O)C(F)(F)F (stereo partly shown) [I-A-64] | – | 73 nM | 96 nM | – | – | –
11 | Cc1noc(C)c1C(=O)N[C@H](C(=O)N1CCC[C@H]1C(=O)N[C@@H](Cc1ccc2ccccc2c1)C(=O)C(F)(F)F)C(C)C [I-A-2, N-[(1S)-2-((2S)-2-{N-[(1S)-3,3,3-trifluoro-1-(2-naphthylmethyl)-2-oxopropyl]carbamoyl}pyrrolidinyl)-1-(methylethyl)-2-oxoethyl]-(3,5-dimethylisoxazol-4-yl)carboxamide] | 2700 ng/mL | 54 nM | 83 nM | – | – | –
12 | CC(C)[C@H](NC(=O)c1ccc2c(c1)no[n+]2[O-])C(=O)N1CCC[C@H]1C(=O)NC(Cc1ccccc1)C(=O)C(F)(F)F (stereo partly shown) [I-A-54] | – | 42 nM | 90 nM | – | – | –
13 | CC(C)[C@H](NC(=O)c1ccc2c(c1)no[n+]2[O-])C(=O)N1CCC[C@H]1C(=O)NC(Cc1csc2ccccc12)C(=O)C(F)(F)F (stereo partly shown) [I-A-52] | – | 31 nM | 57 nM | – | – | –
